Broadly, the Kd is the concentration at which binding is half-saturated. One may read the solubility as how much of the substance goes into solution per volume. Low readings indicate little dissolved substance, high ones much dissolved substance. By half-life is commonly meant the time needed for the level to fall by half in the phase considered. For orientation: share remaining means the share of the starting amount still present when the sample was taken. In general, Cmax refers to the highest concentration seen after dosing.

The values below come from patent publication US20210032291A1, “Compstatin Analogs With Improved Pharmacokinetic Properties” (The Trustees of the University of Pennsylvania, priority 2011, published 2021).

Data set [1] addresses T1, C3b (Homo sapiens, UniProt P01024).
T1 construct: Biotinylated C3b was captured site-specifically on a streptavidin chip
The settings on record: value from previous publication (WO2010/127336), cited from earlier work.

Data set [2] can be described thus: Solubility in WFI and DPBS; UPLC C18 retention time as hydrophobicity. Particulars: for solubility at 5 min: pH 7.4; for Hydrophobicity Retention Time: UPLC analysis on a C18 column.
Procedure: (§4) Approximately 5 mg of each peptide (acetate form) was weighed out into separate LoBind Eppendorf tubes and 50 μL water for injection (WFI) was added to each tube. Each sample was centrifuged at 13000 rpm for 2 min and diluted for measuring the optical density (OD) at 280 nm using a NanoDrop 2000 spectrophotometer (ThermoScientific, Wilmington, Del.). Each concentrated sample was diluted 1:20 into Dulbecco's phosphate buffered saline (DPBS, without potassium and calcium; Invitrogen, Carlsbad, Calif.). The samples were monitored for precipitation, and each sample was vortexed for 5 min and centrifuged at 13000 rpm for 2 min. The OD of each DPBS supernatant was measured to determine peptide concentration at saturation.
(§5) In addition, the ultra performance liquid chromatography (UPLC) retention time of these peptides on a C18 column was measured to reflect their apparent relative hydrophobicity (Table 3).
Data set [3] addresses T1, C3b. Kind of data set: SPR kinetic analysis of binding to immobilized C3b (Biacore, single cycle kinetics). As to the method:
SPR analysis. The interaction of the compstatin analogs with C3b was characterized using a Biacore 3000 instrument (GE Healthcare, Corp., Piscataway, N.J.). The running buffer was PBS, pH 7.4 (10 mM sodium phosphate, 150 mM NaCl) with 0.005% Tween-20. Biotinylated C3b was captured site-specifically on a streptavidin chip at about 3000 and 5000 RU density; two untreated flow cells were used as reference surface. For kinetic analysis, sets of five increasing concentrations of a particular compound were injected over the chip surface one after the other in a single cycle. […] Processed biosensor data were globally fitted to a 1:1 Langmuir binding model (kindly provided by GE Helthcare), and the equilibrium dissociation constant (KD) was calculated from the equation KD=kd/ka. Each assay was performed at least twice.

In data set [4] the test system is classical pathway of complement. Kind of data set: ELISA inhibition of classical pathway complement activation. It is filed as biochemical. Particulars: read-out: IC50, peptide concentration to reach 50% inhibition of classical pathway complement activation; Table 1. As to the method: Inhibition of complement activation. The ability of the compstatin analogs to inhibit the activation of the classical pathway of complement was assessed by ELISA as described elsewhere (Katragadda et al., 2006, supra; Mallik et al., 2005, supra). The percent inhibition was plotted against the peptide concentration, and the resulting data set was fitted to the logistic dose-response function using Origin 8.0 software. IC50 values were obtained from the fitted parameters that produced the lowest χ2 value. Each analog was assayed at least three times.
A general note: An ELISA detects its analyte on a solid surface through an enzyme-linked reagent.

Data set [5] has as its target T2, C3 (Homo sapiens, UniProt P01024).
T2 construct: from tissue; host or cells: fresh human plasma (lepirudin-anticoagulated)
The experiment in a line: Plasma protein binding in human plasma (PEG precipitation, Mono Q FPLC, UPLC-MS). Type of data set: in vitro ADME. Particulars: 20 μM peptide, Mono Q fractions. As to the method: Plasma protein binding. Cp30 (SEQ ID NO:7) was spiked in 500 μL of fresh human plasma containing lepirudin (3.75 units/nil) so that the final peptide concentration was 20 μM (C3: 1.2 mg/mL, 6.4 μm). A control sample was prepared in the same way using Cp30 (SEQ ID NO:7) and milli-Q water to determine the area of peptide in UPLC-MS at 1 μM. The plasma sample was equilibrated at room temperature for 10 min. Then, 500 μL of 30% PEG in milli-Q water (MW3350) was slowly added to the plasma sample while mixing. The mixture was centrifuged at 14000 rpm for 10 min to separate the supernatant. The pellet was dissolved in 1000 μL of FPLC buffer A and separated by FPLC using Mono Q 5/5 column and fractions was collected at 1 mL per tube. 0.5 mL of each fraction was mixed with same volume off 4% H3PO4 for SPE and UPLC-MS analysis.
UPLC-MS analysis. […] Each sample was injected in quadruplicates. […] The analytical column temperature was held at 40° C.

Data set [6] is described as follows: in vivo. Details: species or system baboons (P. Anubis). The settings on record: baboon (P. Anubis), iv, 10 mg. As to the method:
Juvenile baboons (P. Anubis, Baboon Research Resources, University of Oklahoma) weighing 5-8 kg were used. Two baboons were used for the study, one for each compound. Each animal received a bolus dose of peptide (10 mg) by injection through the peripheral vein. Blood samples for the LC-MS/MS assay were collected in 1-ml plastic tubes containing […] lepirudin, and centrifuged at 2000 g for 20 min at 4° C. for plasma separation. Plasma samples were stored at −70° C. Blood samples were collected at pre-determined time intervals after injection of Cp30 (SEQ ID NO:7) or the Cp30 (SEQ ID NO:7)-ABM2 conjugate. Samples were treated with SPE and analyzed using LC-MS/MS. Calibration curves were created using standard peptides at various concentrations in plasma to determine peptide concentration in each sample.
Extraction of compstatin analogs from plasma samples by SPE. […] Samples were diluted with 4% H3PO4. After loading a sample, washing was carried out with 500 μL of water and 10% ACN with 0.1% formic acid. […] Samples for LC-MS were diluted 1:2 to 1:11 in milli-Q water with 10% ACN with 0.1% formic acid.
LC-MS/MS analysis. […] Each sample was injected in triplicate. […] The analytical column temperature was held at 40° C. Peptides were separated at flow rate 0.15 mL/min. The gradient was linear 15-55% B (0.1% formic acid in acetonitrile) over 7 min.

Data set [7] can be described thus: Stability in human plasma at 37° C. (SPE, UPLC-MS). Particulars: fresh human plasma.
Procedure: (§6) Plasma stability. Fresh human plasma containing lepirudin (3.75 units/ml) was incubated at 37° C. with Cp30 (SEQ ID NO:7), Cp40 (SEQ ID NO:18) or control peptide 2B at a final concentration of 20 μM each. Samples of 100 μL were taken for solid phase extraction. A 96-well plate HLB Oasis 30 μm 10 mg (Waters, Milford, Mass.) was employed for extraction. The SPE material was conditioned by addition of 500 μL each of methanol and ACN followed by addition of 500 μL of milli-Q water. Sample was diluted 1:1 with 4% H3PO4. After loading the sample, washing was carried out twice with 500 μL of 10% ACN in 0.1% formic acid. Sample was eluted with 200 μL of 65% ACN in 0.1% formic acid and collected in the Eppendorf LoBind collection plate. Sample for UPLC-MS was diluted 1:10 in milli-Q water with 0.1% formic acid. Cp20 (SEQ ID NO:3) was spiked in each sample before SPE as an internal standard.
(§7) UPLC-MS analysis. UPLC-MS analysis was performed on a SYNAPT HDMS (Waters, Milford, Mass.) equipped with an ESI source controlled by MassLynx 4.1 software (Waters). Each sample was injected in quadruplicates. An online ACQUITY UPLC (Waters) system was used for peptide separation by reversed-phase liquid chromatography. The capillary voltage was 3.2 kV, the cone voltage was 30 V and the source temperature was 120° C. [Glu1]-fibrinogen peptide was used for lock-mass correction with a sampling rate of 30 s. […]
Data set [8] is described as follows: Plasma levels and half-life after i.v. injection in cynomolgus monkeys. Particulars: 2 mg/kg i.v., terminal log-linear portion (1-24 h).
Procedure: (§8) Primate studies and sample collection. Evaluation of plasma half-life and generation of major metabolites was performed at the Simian Conservation Breeding and Research Center (SICONBREC, Makati City, Philippines) in cynomolgus monkeys (Macaca fascicularis). […] Blood samples (1-2 mL) were collected immediately before and at various time points after compound injection (2, 5 and 30 min; 1, 2, 4, 6, and 24 hours) in EDTA-coated Vacutainer tubes to prevent coagulation and complement activation, and centrifuged at ˜800×g for 10 min to obtain plasma. Plasma samples were immediately frozen and stored for further analysis. All NHP studies were performed in accordance with animal welfare laws and regulations.
(§9) Analysis of plasma samples. Prior to analysis by UPLC-MS, compstatin analogs in the plasma samples were extracted by solid phase extraction (SPE) in a 96-well plate format (HLB Oasis 30 μm, 10 mg; Waters, Milford, Mass.). […] Eluted peptides were directly analyzed by HDMS; the ESI source capillary voltage was set to 3.2 kV, the cone voltage to 30 V and the source temperature to 120° C. […]
(§10) Determination of plasma half-life. […] All calibration samples were subjected to SPE and measured using UPLC-HDMS as described above. […] For the pharmacokinetic analysis, the plasma concentration (Cp) at each time point was calculated from the extracted peak area of each peptide using the corresponding standard curve.
A short description of data set [9]: in vivo. Details: species or system cynomolgus monkeys (Macaca fascicularis). Particulars: cynomolgus monkey. The protocol:
Primate studies and sample collection. […] Two healthy animals were used for each route of administration. The animals were sedated and injected subcutaneously with 2 mg/kg of the compound or orally by intragastric gavage with 4 mg/kg of the compound.
(§1) Analyses. Analysis of plasma samples, determination of plasma half-life and complement inhibitory activity in plasma were performed as described in Example 5.

Data set [10] can be described thus: in vivo. Details: species or system baboon. Particulars: 2 mg/kg. As to the method:
A juvenile baboon was injected intramuscularly with 2 mg/kg Cp40 (SEQ ID NO:18) Blood samples for the LC-MS/MS assay were collected in 1-ml plastic tubes containing 50 μg lepirudin, and centrifuged at 2000 g for 20 min at 4° C. for plasma separation. Plasma samples were stored at −70° C. Blood samples were collected at pre-determined time intervals after injection of the analog. Samples were treated with SPE and analyzed using LC-MS/MS. Calibration curves were created using standard peptides at various concentrations in plasma to determine peptide concentration in each sample.
(§2) Extraction of compstatin analog from plasma samples and LC-MS/MS analysis were performed as described in Example 7. A hemolytic assay was performed as described in Example 5.

Data set [11] concerns complement activation via the alternative pathway. Kind of data set: Erythrocyte hemolytic assay on plasma samples of treated cynomolgus monkeys. It is filed as in vivo, cynomolgus monkeys (Macaca fascicularis). The settings on record: subcutaneous injection 2 mg/kg. The protocol:
(§3) Hemolytic assay. Rabbit erythrocytes were washed with phosphate-buffered saline (PBS) followed by washing with Veronal-buffered saline (VBS)^Mg+/EGTA. A 1:20 dilution was prepared in VBS buffer. Plasma samples (1:10 in VBS−100 μl) was incubated with the rabbit erythrocytes solution (50 μl) in a 96-well plate at 37° C. for 1 h. EDTA (0.2 mM-15μl) was added to stop the reaction and plate was centrifuged (2500×g 3 min). Supernatant (100μl) was transferred to a new well and optical density was measured at 405 nm. Incubation of erythrocytes with water or buffer was used as positive (100% lysis) and negative (0% lysis) control, respectively.
as §1

Data set [12] shares this test system. The experiment in a line: Erythrocyte hemolytic assay on plasma samples of treated baboon. It is filed as in vivo. The settings on record: intramuscular injection 2 mg/kg. As to the method: as §3, §2
For data set [13] the following is noted: 5 min, pH 7.4.
Procedure: as §4, §5
Data set [14] is described as follows: in vivo. The settings on record: cynomolgus monkey, iv, 2 mg/kg.
Procedure: as §8, §9, §10
Data set [15] is described as follows: physchem.
Procedure: as §4, §5
A short description of data set [16]: in vitro. Particulars: human, plasma.
Procedure: as §6, §7

≈ marks a conversion by molar mass, not a printed value. Like-named read-outs stand apart in the source and are kept apart here.

T1 sequence (P01024 23-667 limits assumed): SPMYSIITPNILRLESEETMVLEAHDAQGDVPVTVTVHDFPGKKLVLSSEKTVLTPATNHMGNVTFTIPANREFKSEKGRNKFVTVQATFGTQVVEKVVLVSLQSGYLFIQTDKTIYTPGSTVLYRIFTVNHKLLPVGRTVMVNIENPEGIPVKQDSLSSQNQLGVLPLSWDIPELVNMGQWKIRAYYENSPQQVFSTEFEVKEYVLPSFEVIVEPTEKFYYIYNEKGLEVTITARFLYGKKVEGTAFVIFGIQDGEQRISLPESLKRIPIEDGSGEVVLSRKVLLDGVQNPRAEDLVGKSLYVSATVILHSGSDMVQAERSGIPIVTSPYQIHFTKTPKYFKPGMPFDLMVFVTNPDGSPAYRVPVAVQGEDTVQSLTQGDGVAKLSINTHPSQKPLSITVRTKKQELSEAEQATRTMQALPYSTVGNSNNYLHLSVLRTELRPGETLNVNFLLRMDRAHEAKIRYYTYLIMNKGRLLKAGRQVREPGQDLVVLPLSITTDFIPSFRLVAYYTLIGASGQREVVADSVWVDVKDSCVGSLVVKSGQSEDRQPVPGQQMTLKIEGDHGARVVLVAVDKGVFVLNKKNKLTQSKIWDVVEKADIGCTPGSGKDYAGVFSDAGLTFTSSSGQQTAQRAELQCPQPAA
T1 sequence (P01024 749-1663 partner limits assumed): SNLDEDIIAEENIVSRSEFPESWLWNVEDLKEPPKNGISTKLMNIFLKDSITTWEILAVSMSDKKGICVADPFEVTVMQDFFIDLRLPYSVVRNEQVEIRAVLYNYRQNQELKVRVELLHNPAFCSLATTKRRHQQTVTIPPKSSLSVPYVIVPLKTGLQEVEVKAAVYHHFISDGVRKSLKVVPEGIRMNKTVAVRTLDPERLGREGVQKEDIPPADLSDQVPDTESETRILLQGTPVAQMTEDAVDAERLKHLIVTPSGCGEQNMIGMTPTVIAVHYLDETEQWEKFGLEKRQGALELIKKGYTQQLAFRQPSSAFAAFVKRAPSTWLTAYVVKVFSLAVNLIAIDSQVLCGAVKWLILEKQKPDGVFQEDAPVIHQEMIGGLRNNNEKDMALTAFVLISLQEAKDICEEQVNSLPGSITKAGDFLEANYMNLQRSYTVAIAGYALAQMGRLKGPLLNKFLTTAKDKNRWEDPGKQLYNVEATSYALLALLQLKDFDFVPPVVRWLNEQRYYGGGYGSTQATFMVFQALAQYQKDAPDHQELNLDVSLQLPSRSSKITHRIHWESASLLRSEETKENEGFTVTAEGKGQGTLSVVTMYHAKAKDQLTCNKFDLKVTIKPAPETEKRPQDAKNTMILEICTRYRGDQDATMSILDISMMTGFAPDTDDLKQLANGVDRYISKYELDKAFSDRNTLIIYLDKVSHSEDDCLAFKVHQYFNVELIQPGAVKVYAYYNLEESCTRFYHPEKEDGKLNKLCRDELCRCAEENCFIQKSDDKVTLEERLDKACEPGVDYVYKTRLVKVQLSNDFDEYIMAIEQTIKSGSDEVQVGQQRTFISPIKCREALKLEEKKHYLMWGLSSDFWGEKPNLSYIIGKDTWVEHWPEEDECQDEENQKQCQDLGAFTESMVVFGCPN
T2 sequence (P01024 23-1663): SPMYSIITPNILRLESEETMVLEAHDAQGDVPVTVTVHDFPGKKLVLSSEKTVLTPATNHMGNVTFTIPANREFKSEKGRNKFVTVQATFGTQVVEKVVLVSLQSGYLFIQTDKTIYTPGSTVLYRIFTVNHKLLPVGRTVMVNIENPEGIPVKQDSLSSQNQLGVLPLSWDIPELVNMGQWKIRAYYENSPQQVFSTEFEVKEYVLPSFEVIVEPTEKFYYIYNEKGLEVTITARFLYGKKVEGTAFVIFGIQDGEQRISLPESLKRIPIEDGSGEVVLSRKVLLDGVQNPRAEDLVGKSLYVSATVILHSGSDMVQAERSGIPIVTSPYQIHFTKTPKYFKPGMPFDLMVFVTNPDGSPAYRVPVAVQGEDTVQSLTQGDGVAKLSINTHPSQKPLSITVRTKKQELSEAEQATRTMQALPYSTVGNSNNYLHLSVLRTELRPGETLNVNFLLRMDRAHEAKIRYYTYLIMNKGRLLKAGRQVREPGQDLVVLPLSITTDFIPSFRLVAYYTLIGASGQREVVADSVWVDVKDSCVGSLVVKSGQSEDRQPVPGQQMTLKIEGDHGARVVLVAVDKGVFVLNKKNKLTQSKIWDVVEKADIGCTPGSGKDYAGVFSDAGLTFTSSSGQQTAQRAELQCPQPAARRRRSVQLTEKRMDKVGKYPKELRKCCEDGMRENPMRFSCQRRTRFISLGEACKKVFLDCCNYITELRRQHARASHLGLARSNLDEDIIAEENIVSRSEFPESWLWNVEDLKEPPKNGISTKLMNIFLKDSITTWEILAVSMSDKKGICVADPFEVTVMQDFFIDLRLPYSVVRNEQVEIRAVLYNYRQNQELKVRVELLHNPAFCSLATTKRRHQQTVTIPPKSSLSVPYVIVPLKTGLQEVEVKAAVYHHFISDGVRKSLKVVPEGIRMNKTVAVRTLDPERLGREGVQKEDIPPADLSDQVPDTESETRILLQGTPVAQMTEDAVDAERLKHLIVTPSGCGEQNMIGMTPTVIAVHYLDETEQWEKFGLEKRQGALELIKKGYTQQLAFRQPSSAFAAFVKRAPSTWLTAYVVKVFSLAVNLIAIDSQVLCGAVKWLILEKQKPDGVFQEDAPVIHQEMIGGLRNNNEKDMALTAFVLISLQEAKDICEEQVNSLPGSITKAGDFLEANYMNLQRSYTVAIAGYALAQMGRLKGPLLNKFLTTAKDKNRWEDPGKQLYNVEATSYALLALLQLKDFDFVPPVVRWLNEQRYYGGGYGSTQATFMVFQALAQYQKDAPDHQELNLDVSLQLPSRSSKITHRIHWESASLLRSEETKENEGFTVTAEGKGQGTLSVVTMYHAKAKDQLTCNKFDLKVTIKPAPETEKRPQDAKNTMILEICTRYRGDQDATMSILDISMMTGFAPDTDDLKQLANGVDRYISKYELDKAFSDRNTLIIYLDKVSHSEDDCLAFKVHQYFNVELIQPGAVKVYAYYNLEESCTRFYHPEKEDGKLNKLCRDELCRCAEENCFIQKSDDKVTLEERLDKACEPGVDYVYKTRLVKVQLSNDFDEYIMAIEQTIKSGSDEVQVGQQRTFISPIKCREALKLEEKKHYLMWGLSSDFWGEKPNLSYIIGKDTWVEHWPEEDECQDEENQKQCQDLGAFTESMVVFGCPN

`CC[C@H](C)[C@H](NC(C)=O)C(=O)N[C@H]1CSSC[C@@H](C(=O)N(C)[C@H](C(N)=O)[C@@H](C)CC)NC(=O)[C@H](CCCNC(=N)N)NC(=O)[C@H](Cc2c[nH]cn2)NC(=O)[C@H](C)NC(=O)CN(C)C(=O)[C@H](Cc2c[nH]c3ccccc23)NC(=O)[C@H](CC(=O)O)NC(=O)[C@H](CCC(N)=O)NC(=O)[C@H](Cc2cn(C)c3ccccc23)NC(=O)[C@H](C(C)C)NC1=O` [Cp20, reference compound]: in data set [1], the “ka: association rate” value is reported as 1.9 10^6/Ms and the “kd: dissociation rate” value is 4.0 10^−3/s. In [1] (read-out: KD: binding constant from SPR), the Kd was 2.4 nM. In data set [2] (Dulbecco's phosphate buffered saline (DPBS)), this molecule showed a solubility at 5 min of 2700 µg/mL (≈ 1.62 mM). Moreover, the “Hydrophobicity Retention Time” value in data set [2] is recorded as 5.33 min. For the same molecule, the “Solubility WFI” value in [2] (water for injection, OD (280 nm) at saturation, acetate form) turned out to be 13000 µg/mL (≈ 7.79 mM).

On to `CC[C@H](C)[C@H](NC(=O)CNC)C(=O)N[C@H]1CSSC[C@@H](C(=O)N(C)[C@H](C(N)=O)[C@@H](C)CC)NC(=O)[C@H](CCCNC(=N)N)NC(=O)[C@H](Cc2c[nH]cn2)NC(=O)[C@H](C)NC(=O)CN(C)C(=O)[C@H](Cc2c[nH]c3ccccc23)NC(=O)[C@H](CC(=O)O)NC(=O)[C@H](CCC(N)=O)NC(=O)[C@H](Cc2cn(C)c3ccccc23)NC(=O)[C@H](C(C)C)NC1=O` [peptide 3, Sar-Ile-[Cys-Val-Trp(Me)-Gln-Asp-Trp-Sar-Ala-His-Arg-Cys]-mIle-NH2], for which the “ka: association rate” value in data set [3] (Table 1, N-terminal analogs) is on record as 1.9 ± 0.5 10^6/Ms. The Kd in data set [3] (Table 1, N-terminal analogs, read-out: KD: binding constant from SPR) worked out at 1.6 nM. For the same molecule, the koff in data set [3] (Table 1, N-terminal analogs, read-out: kd: dissociation rate) was determined as 0.0029 ± 0.0003 s⁻¹. In addition, the IC50 in [4] was found to be 82 ± 14 nM. In [5], the “Fraction of peptide co-eluted with C3” value came out at 88.0%, the “Fraction of peptide co-eluted with C3c” value came to 4.5% and the “Fraction of peptide located in the flow-through” value was 7.5%. Further, in data set [6], the half-life is 5 h. The molecule further came in with a fraction remaining at 120 h, 20 μM in [7] of more than 55%. Moreover, the solubility at 5 min in data set [2] (Dulbecco's phosphate buffered saline) amounted to 6900 µg/mL (≈ 4.07 mM). The “Hydrophobicity Retention Time” value in [2] was found to be 4.60 min. For the same molecule, the solubility in [2] (water for injection) is more than 50000 µg/mL. This molecule yielded a Plasma half-life in data set [8] of 10.1 h.

Regarding `CC[C@H](C)[C@H](NC(=O)[C@H](N)Cc1ccc(O)cc1)C(=O)N[C@H]1CSSC[C@@H](C(=O)N(C)[C@H](C(N)=O)[C@@H](C)CC)NC(=O)[C@H](CCCNC(=N)N)NC(=O)[C@H](Cc2c[nH]cn2)NC(=O)[C@H](C)NC(=O)CN(C)C(=O)[C@H](Cc2c[nH]c3ccccc23)NC(=O)[C@H](CC(=O)O)NC(=O)[C@H](CCC(N)=O)NC(=O)[C@H](Cc2cn(C)c3ccccc23)NC(=O)[C@H](C(C)C)NC1=O` [peptide 14, dTyr-Ile-[Cys-Val-Trp(Me)-Gln-Asp-Trp-Sar-Ala-His-Arg-Cys]-mIle-NH2], the “ka: association rate” value in [3] (Table 1, N-terminal analogs) was 2.8 ± 0.5 10^6/Ms; in data set [3] (Table 2, Cp40-based analogs), 2.8 ± 0.6 10^6/Ms. Besides, the IC50 in [4] is 66 ± 8 nM. Also, in [9] (po, 4 mg/kg), the “Time to reach the stated plasma concentration” value is reported as “within one hour”. In addition, the level at time molar in data set [9] (po, 4 mg/kg) is approximately 0.023 µM. For the same molecule, the Cmax is approximately 12.5 µM in [9] (sc, 2 mg/kg); approximately 10 µM in [10] (monkey, im); approximately 28 µM in data set [14]. Also, the “Time to peak plasma concentration” value in data set [9] (sc, 2 mg/kg) was in the range of 4 to 5 h; in data set [10] it was 5 to 6 h. The “Complement inhibitory activity versus analog concentration in plasma samples” value in data set [11] and in data set [12] was “closely track the concentration of analog” in each case. Moreover, the “Solubility DPBS pH7.4” value in data set [13] was determined as 0.8 mg/mL. In [15], this molecule showed a solubility of more than 50000 µg/mL. The molecule also had a solubility at 5 min in [15] (pH 7.4) of 800 µg/mL (≈ 0.447 mM). Besides, the fraction remaining at 120 h, 20 μM in data set [16] was more than 55%. Moreover, the “Hydrophobicity Retention Time” value in [2] came out at 4.73 min.
